Source: patent US9999650B2, “Peptide and peptidomimetic inhibitors” (Ra Pharmaceuticals, Inc., priority 2012, dated 2018)
Numbered stars: 1 amine (or outer) side, 2 acyl side, 3 side chain; on linkers, the order of the positions; unused ones are H or OH. Bridge positions count the residues as written; N and C are the ends. Square brackets hold non-standard residues; d marks the D form. Peptide text beside a SMILES is read from it. Trp(5-Cl) = N[C@@H](Cc1c[nH]c2ccc(Cl)cc12)C(=O)O; mXylylene = c1cc(C[*:1])cc(C[*:2])c1; Pen = CC(C)(S)[C@H](N)C(=O)O; Phg = N[C@H](C(=O)O)c1ccccc1; Tle = CC(C)(C)[C@H](N)C(=O)O; Nva = CCC[C@H](N)C(=O)O; Mpa = O=C(O)CCS

Biological target: T1, human plasma kallikrein (Homo sapiens, UniProt P03952)
T1 construct: purchased Enzyme Research Laboratories HPKa 1303
Experiment: Enzyme inhibition assay (fluorogenic substrate H-Pro-Phe-Arg-AMC)
Type: biochemical
Conditions: Kallikrein inhibitory activity; 1 nM activated human kallikrein, 500 μM H-Pro-Phe-Arg-AMC, 1 hour room temperature; read-out: Avg. IC50
How it was run: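 Activated enzyme (1 nM final) was preincubated 5 min at room temperature with peptides in 10-point 8-fold dilutions. The buffer was 50 mM Tris-HCl pH 7.2, 150 mM NaCl, 10 mM CaCl2, 0.05% Brij-35. After 1 h at room temperature with 500 μM substrate (final), fluorescence was read at 360/460 nm to derive IC50.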

T1 sequence (P03952 20-390 limits assumed): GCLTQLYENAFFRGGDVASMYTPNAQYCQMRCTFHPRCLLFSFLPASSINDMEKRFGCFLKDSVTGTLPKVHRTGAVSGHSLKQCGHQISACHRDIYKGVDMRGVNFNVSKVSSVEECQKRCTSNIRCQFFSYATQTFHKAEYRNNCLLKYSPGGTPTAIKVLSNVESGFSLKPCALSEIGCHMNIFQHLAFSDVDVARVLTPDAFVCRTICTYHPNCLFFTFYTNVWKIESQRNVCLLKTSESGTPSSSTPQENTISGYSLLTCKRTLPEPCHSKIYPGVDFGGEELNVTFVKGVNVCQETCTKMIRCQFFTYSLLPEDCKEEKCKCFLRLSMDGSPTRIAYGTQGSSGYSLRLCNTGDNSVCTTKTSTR
T1 sequence (P03952 391-638 limits assumed): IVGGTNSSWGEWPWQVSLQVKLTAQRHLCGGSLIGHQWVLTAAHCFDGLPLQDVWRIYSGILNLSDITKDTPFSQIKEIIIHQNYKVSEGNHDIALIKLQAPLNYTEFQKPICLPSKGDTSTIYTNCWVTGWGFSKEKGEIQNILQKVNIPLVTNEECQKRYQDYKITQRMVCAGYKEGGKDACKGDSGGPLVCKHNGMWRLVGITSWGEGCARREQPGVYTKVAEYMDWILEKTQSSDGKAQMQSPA

SMILES	IC50 [µM]
CC(=O)N[C@@H](CS)C(=O)N[C@@H](CC(N)=O)C(=O)N[C@@H](Cc1ccc(O)cc1)C(=O)N[C@@H](Cc1c[nH]c2ccccc12)C(=O)N[C@@H](CO)C(=O)N1CCC[C@H]1C(=O)N[C@H](Cc1c[nH]c2ccccc12)C(=O)N[C@H](C(=O)N[C@@H](C)C(=O)N[C@@H](CS)C(N)=O)[C@@H](C)O [Compound R2228, Ac-CNYWSPwTAC-NH2] (Ac-CNYWSP[dW]TAC-NH2)	> 10.6
CC(=O)N[C@@H](CS)C(=O)N[C@@H](CC(N)=O)C(=O)N[C@@H](Cc1ccc(O)cc1)C(=O)N[C@@H](Cc1c[nH]c2ccccc12)C(=O)N[C@@H](CO)C(=O)N1CCC[C@H]1C(=O)N[C@@H](Cc1c[nH]c2ccccc12)C(=O)N[C@H](C(=O)N[C@@H](CCC(=O)O)C(=O)N[C@@H](CS)C(=O)N[C@@H](CO)C(=O)N[C@@H](C)C(N)=O)[C@@H](C)O [Compound R2116, Ac-CNYWSPWTECSA-NH2] (Ac-CNYWSPWTECSA-NH2)	0.0035
CCC[C@H](N)C(=O)N[C@@H]1C(=O)N[C@@H](CCC(=O)O)C(=O)N[C@@H](CO)C(=O)N[C@@H]([C@@H](C)CC)C(=O)N[C@H](C(=O)N[C@@H](CCCNC(=N)N)C(=O)N[C@H](C(N)=O)C(C)C)CSCc2cccc(c2)CSC1(C)C [Compound R2031, [mXylyl(2,6)]Nvl-Pen-ESICRV-NH2] (H-[Nva][Pen]ESICRV-NH2; linker 2-6 via mXylylene)	1.46
CC(=O)N[C@@H](CS)C(=O)N[C@@H](CC(N)=O)C(=O)N[C@@H](Cc1ccc(O)cc1)C(=O)N[C@@H](Cc1c[nH]c2ccccc12)C(=O)N[C@@H](CO)C(=O)N1CCC[C@@H]1C(=O)N[C@@H](Cc1c[nH]c2ccccc12)C(=O)N[C@H](C(=O)N[C@@H](C)C(=O)N[C@@H](CS)C(N)=O)[C@@H](C)O [Compound R2229, Ac-CNYWSpWTAC-NH2] (Ac-CNYWS[dP]WTAC-NH2)	> 14.3
CC(C)(C)[C@H](NC(=O)[C@H](Cc1c[nH]c2ccc(Cl)cc12)NC(=O)[C@@H]1CSCc2cccc(c2)CSCCC(=O)N2CCC[C@H]2C(=O)N[C@@H](c2ccccc2)C(=O)N1)C(N)=O [Compound R2209, [mXylyl(1,4)](des-NH2)C-P-Phg-C-5-C1-Trp-Tbg-NH2] ([Mpa]P[Phg]C[Trp(5-Cl)][Tle]-NH2; linker 1-4 via mXylylene)	> 75
CC(C)(C)[C@H](NC(=O)[C@H](CCCNC(=N)N)NC(=O)[C@@H]1CCn2cc(nn2)CCCCCC(=O)N2CCC[C@H]2C(=O)N[C@@H](C2CCCCC2)C(=O)N1)C(N)=O [Compound R2251]	> 100
